# Test results from patent US9924719B2, “Pyridazine compound” (Sumitomo Chemical Company, Limited, priority 2014, dated 2018).
# How the values were obtained:
# Assay type in all cases: in vivo
# [1] = test system: housefly (Musca domestica); assay: Test Example 9: treated filter paper with sucrose bait, housefly, 500 ppm; details: 0.7 mL on filter paper, female adult housefly, after 24 hours
# Procedure: Each formulation comprising the Present compound 5, 17, 25, 26, 27, 31, 35, 36, 37 or 38, or the N-oxide 3, the N-oxide 4, or the N-oxide 5 prepared by the process according to the Formulation example 5 was diluted with water until the concentration of the active ingredient reached 500 ppm to prepare a test chemical solution.
# The bottom of the polyethylene cup having 5.5 cm diameter was matted with the same size of a filter paper, and 0.7 mL of the test chemical solution was added dropwise to the filter paper, and 30 mg sucrose as bait was placed in the cup uniformly. Ten (10) heads of female adult housefly (Musca domestica) were released into the polyethylene cup, and the cup was covered with a lid. After 24 hours, the life and death of housefly was investigated, and the number of dead insects was counted, and the mortality of insects was calculated by the following equation. Mortality of insects (%)=(the number of dead insects/the number of test insects)×100
# [2] = test system: cucurbit leaf beetle (Aulacophora femoralis); assay: Test Example 11: spray on cucumber seedling, cucurbit leaf beetle larvae, 50 ppm; details: 120 h, Formulation example 1, spray 30 mL/cup on cucumber, second instar larvae, 25° C., 5 days, read-out: morality of insects
# Procedure: Meanwhile, cucumber seedling (on the developmental stage of the third true leaf) was planted in a polyethylene cup, and each of the test chemical solution was sprayed into the seedling in a ratio of 30 mL/cup. After the test chemical solution was dried, the second leaf thereof was cut out, and then installed into a 200 mL cup. Ten (10) heads of the second instar larvae of cucurbit leaf beetle (Aulacophora femoralis) were released into the cup, and the cup was covered with a lid. After the cup was stored at 25° C. for 5 days, the number of the dead insects was counted, and the mortality of insects was calculated by the following equation. Morality (%)−{the number of the dead insects/the number of the test isects}×100
# [3] = test system: cotton aphid (Aphis gossypii); assay: Test Example 1: foliar spray on cucumber seedling infested with cotton aphid, 500 ppm; details: 144 h, spray 20 mL/seedling on cucumber, 6 days after spraying, read-out: controlling value
# [4] = test system: cotton aphid (Aphis gossypii); assay: Test Example 2: foliar spray on cucumber seedling infested with cotton aphid, 200 ppm; details: 144 h, spray 20 mL/seedling on cucumber, 6 days after spraying, read-out: controlling value
# [5] = test system: house mosquito (Culex pipiens pallens); assay: Test Example 10: house mosquito larvae in treated water; details: 0.7 mL of 500 ppm solution in 100 ml water (3.5 ppm), last instar larvae, after 1 day
# Procedure: The formulation comprising the Present compounds 4 prepared by the process according to the Formulation example 5 was diluted with water until the concentration of the active ingredient reached 500 ppm to prepare a test chemical solution.
# Zero point seven(0.7) mL of the testg chemical solution was added to ion-changed water 100 ml (the concentrataion of the active ingredient was 3.5 ppm). Twently (20) heads of the last instar larvae of […] house mosquito (Culex pipiens pallens) were released […], and after 1 day, the life and death of house mosquito was investigated, and the number of dead insects was counted, and the mortality of insects was calculated by the following equation. Mortality of insects (%)=(the number of the dead insects/the number of the test insects)×100
# [6] = test system: brown planthopper (Nilaparvata lugens); assay: Test Example 5: spray on rice seedling, brown planthopper, 200 ppm; details: 144 h, 10 mL spray on rice seedling, 3rd to 4th instar larvae, after 6 days, 25° C., read-out: controlling value
# [7] = test system: cabbage moth (Plutella xylostella); assay: Test Example 7: spray on cabbage seedling, cabbage moth larvae, 500 ppm; details: 120 h, spray 20 mL/cup on cabbage, 2nd instar larvae, 25° C., 5 days, read-out: morality of insects
# Procedure: (§1) Meanwhile, cabbage seedling (on the developmental stage of the third true leaf) was planted in a polyethylene cup, and each of the test chemical solution was sprayed into the cabbage seedling in a ratio of 20 mL/cup. After the test chemical solution was dried, the stem and leaf thereof was cut out and then installed into a 50 mL cup. Five (5) heads of 2nd instar larvae of cabbage moth (Plutella xylostella) were released into the cup, and the cup was covered with a lid. After the cup was stored at 25° C. for 5 days, the number of the dead insects was counted, and the mortality of insects was calculated by the following equation. Morality (%)=([…]the number of the dead insects/the number of the test insects)×100
# [8] = test system: cabbage moth (Plutella xylostella); assay: Test Example 8: spray on cabbage seedling, cabbage moth larvae, 200 ppm; details: 120 h, spray 20 mL/cup on cabbage, 2nd instar larvae, 25° C., 5 days, read-out: morality of insects
# Procedure: as §1, with “of the surviving insects/the number” for “of the dead insects/the number”
Structure (SMILES),morality of insects [1],pest or weed control at 50 ppm [2],pest or weed control at 500 ppm [3],pest or weed control at 200 ppm [4],insect mortality [5],pest or weed control at 200 ppm [6],pest or weed control at 500 ppm [7],pest or weed control at 200 ppm [8]
CCS(=O)(=O)c1cccnc1-c1n[n+]([O-])c(OCC(F)(F)C(F)(F)F)cc1C [N-oxide 3],100%,,,,,,,
CCS(=O)(=O)c1cc(C(F)(F)F)cnc1-c1ccc(OCC(F)(F)C(F)(F)F)[n+]([O-])n1 [N-oxide 4],100%,,,,,,,
CCS(=O)(=O)c1cc(C(F)(F)F)cnc1-c1ccc(OCC(F)(F)C(F)F)[n+]([O-])n1 [N-oxide 5],100%,,,,,,,
CCS(=O)(=O)c1cc(C(F)(F)F)ccc1-c1ccc(OCC(F)(F)F)nn1 [Present compound 1],,≥ 85%,,,,,,
CCS(=O)(=O)c1cccnc1-c1ccc(OCC(Cl)(Cl)Cl)nn1 [Present compound 4],,≥ 85%,≥ 90%,≥ 90%,≥ 95%,,,
CCS(=O)(=O)c1cccnc1-c1ccc(OCC(F)(F)F)nn1 [Present compound 5],100%,,,,,,,
CCS(=O)(=O)c1cccnc1-c1ccc(OCC(F)(F)C(F)F)nn1 [Present compound 8],,≥ 85%,≥ 90%,≥ 90%,,≥ 90%,≥ 80%,≥ 80%
CCS(=O)(=O)c1cccnc1-c1ccc(OCC(F)(F)C(F)(F)C(F)(F)F)nn1 [Present compound 17],100%,,,,,,,
CCS(=O)(=O)c1cccnc1-c1ccc(OCC(C)(C(F)(F)F)C(F)(F)F)nn1 [Present compound 25],100%,,,,,,,
CCC(Oc1ccc(-c2ncccc2S(=O)(=O)CC)nn1)C(F)(F)F (stereo not drawn) [Present compound 26],100%,,,,,,,
CCSc1cccnc1-c1ccc(OCC(F)(F)C(F)(F)F)nn1 [Present compound 27],100%,≥ 85%,≥ 90%,≥ 90%,,≥ 90%,≥ 80%,≥ 80%
CCS(=O)(=O)c1cc(C(F)(F)F)cnc1-c1ccc(OCC(F)(F)C(F)(F)F)nn1 [Present compound 28],,≥ 85%,,≥ 90%,,≥ 90%,,≥ 80%
CC[S+]([O-])c1cccnc1-c1ccc(OCC(F)(F)C(F)(F)F)nn1 (stereo not drawn) [Present compound 29],,≥ 85%,≥ 90%,≥ 90%,,≥ 90%,,
CCS(=O)(=O)c1cccnc1-c1nnc(OCC(F)(F)C(F)(F)F)cc1C [Present compound 30],,,,,,,,≥ 80%
CCS(=O)(=O)c1cc(C(F)(F)F)cnc1-c1ccc(OCC(F)(F)C(F)F)nn1 [Present compound 31],100%,,,,,,,
CCS(=O)(=O)c1cccnc1-c1cc(C(F)(F)F)c(OCC(F)(F)C(F)F)nn1 [Present compound 33],,,≥ 90%,,,,≥ 80%,≥ 80%
CCS(=O)(=O)c1cccnc1-c1cc(C(F)(F)F)c(OCC(F)(F)C(F)(F)F)nn1 [Present compound 34],,≥ 85%,≥ 90%,,,,≥ 80%,≥ 80%
CCS(=O)(=O)c1cccnc1-c1cc(C)c(OCC(F)(F)C(F)F)nn1 [Present compound 35],100%,≥ 85%,≥ 90%,≥ 90%,,≥ 90%,≥ 80%,≥ 80%
CCS(=O)(=O)c1cccnc1-c1cc(C)c(OCC(F)(F)C(F)(F)F)nn1 [Present compound 36],100%,,≥ 90%,≥ 90%,,≥ 90%,≥ 80%,≥ 80%
CC[S+]([O-])c1cccnc1-c1cc(C)c(OCC(F)(F)C(F)F)nn1 (stereo not drawn) [Present compound 37],100%,,≥ 90%,≥ 90%,,≥ 90%,≥ 80%,
CC[S+]([O-])c1cccnc1-c1cc(C)c(OCC(F)(F)C(F)(F)F)nn1 (stereo not drawn) [Present compound 38],100%,,≥ 90%,≥ 90%,,≥ 90%,≥ 80%,≥ 80%
